Here are results for 6 compounds from patent US20220372014A1, “NEUROPROTECTIVE COMPOUNDS AND METHODS OF USE THEREOF” (The Johns Hopkins University, priority 2019, published 2022).

Molecules are shown by their SMILES. “Also recorded” adds a separate entry of the source.

One experiment relates to SH-SY5Y cells. Nature of the experiment: Staurosporine (STS)-induced apoptotic cell death, Alamar blue. The note with it: 0.5 μM STS. It is filed as cell-based. The protocol:
Graphs represent mean±s.e.m. ***P<0.0005, two-way ANOVA followed by Tukey's post hoc test (n=3). A PARP inhibitor, ABT-888 is used for the positive control. FIGS. 12B and 12C show in vitro oxidoreductase and tautomerase activity of MIF/PAAN with compound 41, 56, 76, or 77. FIGS. 12D and 12E show Alamar blue cell viability assay from SH-SY5Y cells pre-incubated with compound 41, 56, 76, or 77 in response to 0.5 μM staurosporine (STS) or from HT 22 cells incubated with 1 ng/ml of TNF-α with 50 μM z-VAD. A pan caspase inhibitor, z-VAD or necrostatin (Nec-1) is used for the positive control and PARP inhibitor, ABT-888 is used for negative control. Bars represent mean±s.e.m. ***P<0.0005, two-way ANOVA followed by Tukey's post hoc test (n=3). […] Bars represent mean±s.e.m. **P<0.005, ***P<0.0005, two-way ANOVA followed by Tukey's post hoc test (n=3).
FIGS. 14A-14G show the characterization of compound 121. […] Bars represent means±s.e.m. ***P<0.0005, two-way ANOVA followed by Tukey's post hoc test (n=4). […] Bars represent mean±s.e.m. ***P<0.0005, two-way ANOVA followed by Tukey's post hoc test (n=4). […] Bars represent means±s.e.m. **P<0.005, ***P<0.0005, one-way ANOVA followed by Tukey's post hoc test (n=3). […] Bar represent mean±s.e.m. ***P<0.0005, one-way ANOVA followed by Tukey's post hoc test (n=3). […] Quantification of inhibition of PARP-1 activity by compound 56, compound 121 and ABT-888 is shown. Graphs represent mean±s.e.m. ***P<0.0005, two-way ANOVA followed by Tukey's post hoc test (n=3). FIGS. 14F and 14G show Alamar blue cell viability assay from SH-SY5Y cells pre-incubated with either compound 56 or 121 in response to (14F) 0.5 μM staurosporine (STS) or (14G) from HT 22 cells incubated with 1 ng/ml of TNF-α with 50 μM z-VAD. Bars represent mean±s.e.m. ***P<0.0005, two-way ANOVA followed by Tukey's post hoc test (n=5).
(§1) Cell death and viability assessment. Primary cultured cortical neurons were treated with 5 μg/ml of α-syn PFF for 14 days and cell death was determined by staining of all nuclei with 7 μM Hoechst 33342 and dead cell nuclei with 2 μM propidium iodide (PI) (Invitrogen). The numbers of total and dead cells were counted with the Axiovision 4.6 software (Carl Zeiss). Cell viability was determined by fluorescence at an excitation wavelength 570 nm and an emission wavelength 585 nm using Alamar Blue (Invitrogen).

Another experiment addresses T1, PAAN/MIF WT or variants (Homo sapiens, UniProt P14174).
T1 construct: made in house; host or cells: Escherichia coli
Nature of the experiment: Biolayer interferometry (ForteBio Octet) binding assay. The conditions noted are these: PAAN/MIF WT. The text has this:
Purification of PAAN/MIF recombinant proteins. Human PAAN/MIF (NM_002415) cDNA and its variants were subcloned into pGEX-6β-1 vector (GE Healthcare) and mutants were generated using a QuikChange site-directed mutagenesis kit (Stratagene). The sequences were confirmed by automated DNA sequencing. The protein was expressed and purified from Escherichia coli by glutathione sepharose (GE Healthcare). The GST tag was subsequently proteolytically removed. GST protein was used as a negative control in the nuclease assay and PAAN/MIF proteins purified by FPLC using Superdex 200 10/300GL column (GE Healthcare, Life Sciences) were also used in the nuclease assays.
Biolayer interferometry assay. The dose-dependent binding of compound 121 for PAAN/MIF WT or PAAN/MIF variants were determined by a biolayer interferometry assay using Octet RED96 (ForteBio). See Guo et al. (2018) Nat. Chem. 11:254-63. All the proteins used in this assay were tagged with GST. Anti-GST biosensor tips (ForteBio) were used to immobilize the GST proteins after prewetting with 1X kinetic buffer (ForteBio). The equilibrated GST biosensors were loaded with PAAN/MIF WT or variants (25 μg/ml). Background binding controls were measured by sensors that were incubated in buffer without proteins. All assays were performed by a standard protocol in 96-well black plates (Greiner Bio) with a total volume of 200 μl per well. All the data were analyzed by Octet data analysis software.

A further experiment concerns the target ExoIII (Escherichia coli, UniProt P09030). Kind of experiment: In vitro nuclease assay of ExoIII (18 bp double-strand DNA substrate). In kind it is biochemical. On the procedure:
Nuclease assay. Purified PAAN/MIF protein (4 μM) was incubated with compounds (10 μM) in the nuclease buffer [10 mM Tris-C1 (pH 7.0) and 10 mM MgCl2] for 20 m on ice. Then samples were added with 1 μM of PAAN/MIF substrate (PS30 or RF) and incubated for 1 h at 37° C. The reaction was terminated with loading buffer containing 10 mM EDTA and separated on 15% TBE-urea polyacrylamide (PAGE) gel or 20% TBE PAGE gel. For other nucleases (EcoRI and EcoRV) assays, pcDNA3 (500 ng/reaction) was used as a substrate and 0.01 unit of Exonulcase III were incubated with small dsDNA (Sequence ID NO 4:5′-[…]-3′ and Sequence ID NO 5:5′-[…]-3′).

A further experiment deals with human cortical neurons. Nature of the experiment: α-syn PFF-induced cell death in human cortical neurons (Hoechst and PI staining). It is filed as cell-based. The note with it: pre-incubated 1 h, α-syn PFF 14 days. The protocol: Preparation of human cortical neurons. Human H1 embryonic stem cells (ESCs) were differentiated into cortical neurons as previously described. See Xu et al. (2016) Sci. Transl. Med. 8:333ra48. Briefly, ESC colonies detached from mouse embryonic fibroblasts (MEFs) were grown in suspension in human ESC medium without FGF2 for 6 days in low-attachment six-well plates (Corning). On day 7, free-floating embyroid bodies (EB)s were transferred to Matrigel coated plates to allow the complete attachment of EB and formation of rosette neuronal aggregates (RONAs). RONAs were manually microisolated and maintained as neurospheres for 1 day and then dissociated into single cells and plated on laminin/poly-D-lysine-coated plates for further experiments. […]
as §1

Sequence of ExoIII (P09030 whole entry): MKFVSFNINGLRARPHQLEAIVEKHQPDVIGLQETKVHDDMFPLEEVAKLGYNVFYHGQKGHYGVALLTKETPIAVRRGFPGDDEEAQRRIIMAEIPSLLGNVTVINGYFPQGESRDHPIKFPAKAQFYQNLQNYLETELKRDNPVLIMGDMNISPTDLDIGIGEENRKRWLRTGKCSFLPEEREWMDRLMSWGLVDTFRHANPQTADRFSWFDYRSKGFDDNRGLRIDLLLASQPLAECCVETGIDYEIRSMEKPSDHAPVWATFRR

`COc1ccc(CC[C@H]2OC(=O)[C@@H]3CCCCN3C(=O)C(=O)C(C)(C)COC(=O)C=CCCN(C)C(=O)[C@@H]3CCCN3C(=O)[C@H](COC(C)(C)C)N(C)C(=O)C(c3ccccc3)NC(=O)[C@H](C)N(C)C(=O)COc3cc(F)cc2c3)cc1OC` (mixture of isomers) [compound 121]: the “staurosporine (STS)-induced apoptotic cell death” value (from here on “staurosporine”) in the experiment with SH-SY5Y cells is listed as “failed to inhibit”. Besides, the “Kd, binding affinity of PAAN/MIF” value on PAAN/MIF WT or variants amounted to 1.56 µM.

For `COc1ccc(CC[C@H]2OC(=O)[C@@H]3CCCCN3C(=O)C(=O)C(C)(C)COC(=O)C=CCCN(C)C(=O)[C@@H]3CCCN3C(=O)[C@H](COC(C)(C)C)N(C)C(=O)C(c3ccccc3)NC(=O)CN(C)C(=O)COc3cccc2c3)cc1OC` (stereo partly shown) [compound 41], in the experiment on SH-SY5Y cells, the “staurosporine” value is listed as “do not inhibit”. Also, at ExoIII, the “nuclease activity of ExoIII” value is recorded as “do not inhibit”.

As to `COc1ccc(CC[C@H]2OC(=O)[C@@H]3CCCCN3C(=O)C(=O)C(C)(C)COC(=O)C=CCCN(C)C(=O)[C@@H]3CCCN3C(=O)[C@H](COC(C)(C)C)N(C)C(=O)C(c3ccccc3)NC(=O)[C@H](C)N(C)C(=O)COc3cccc2c3)cc1OC` (stereo partly shown) [compound 56], in the experiment on SH-SY5Y cells, the “staurosporine” value is given as “do not inhibit; also recorded: failed to inhibit”. Also, in the experiment on human cortical neurons, the “cell death in human cortical neurons treated with human α-syn PFF” value is “protected against cell death similar to ABT-888”. Moreover, the “nuclease activity of ExoIII” value on ExoIII is “do not inhibit”.

For `COc1ccc(CC[C@H]2OC(=O)[C@@H]3CCCCN3C(=O)C(=O)C(C)(C)COC(=O)C=CCCN(C)C(=O)CNC(=O)[C@H](C(C)C)N(C)C(=O)[C@@H](Cc3ccccc3)NC(=O)[C@H](CC(C)C)N(C)C(=O)CCC(=O)Nc3cccc2c3)cc1OC` [compound 76], the “staurosporine” value with SH-SY5Y cells is reported as “do not inhibit”. Moreover, the “nuclease activity of ExoIII” value at ExoIII was “do not inhibit”.

Turning to `COc1ccc(CC[C@H]2OC(=O)[C@@H]3CCCCN3C(=O)C(=O)C(C)(C)COC(=O)C=CCCN(C)C(=O)[C@H](C)NC(=O)[C@H](C(C)C)N(C)C(=O)[C@@H](Cc3ccccc3)NC(=O)[C@H](CC(C)C)N(C)C(=O)CCC(=O)Nc3cccc2c3)cc1OC` [compound 77], the “staurosporine” value in the experiment with SH-SY5Y cells was “do not inhibit”. In the experiment on human cortical neurons, the “cell death in human cortical neurons treated with human α-syn PFF” value is “protected against cell death similar to ABT-888”. For the same compound, on ExoIII, the “nuclease activity of ExoIII” value was “do not inhibit”.

For `COc1ccc(CC[C@H]2OC(=O)[C@@H]3CCCCN3C(=O)C(=O)C(C)(C)COC(=O)C=CCCN(C)C(=O)[C@@H]3CCCN3C(=O)[C@H](CO)N(C)C(=O)C(c3ccccc3)NC(=O)[C@H](C)N(C)C(=O)COc3cccc2c3)cc1OC` (stereo partly shown) [compound 97], the “binding to PAAN/MIF” value on PAAN/MIF WT or variants was “lack of binding”.
